In patent US20230017045A1, “PYRIDINE AND PYRIMIDINE CARBOXYLATE HERBICIDES AND METHODS OF USE THEREOF” (Dow AgroSciences LLC, priority 2017, published 2023):

Each compound was assayed on test plant species (assay: Post-emergent herbicidal activity test (greenhouse, foliar spray, visual growth reduction)). Settings: post-emergence, 336 h, ALOMY: blackgrass (Alopecurus myosuroides), 140 g ai/ha, 14 days after application, read-out: Visual Growth Reduction (%) 14 Days After Application, ALOMY.
Type: in vivo
How it was run: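 Scoring used a 0 to 100 percent visual scale of growth reduction against solvent-treated controls, read 14 d after spraying. Applications went onto plants at first or second true leaf stage, 187 L/ha, with crop oil concentrate and X-77 surfactant in the carrier. Post-treatment watering was by subirrigation to avoid wash-off.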

**Q.** Which pest or weed control at 140 g/ha does the source give for `O=C(O)c1nc(-c2ncc(C(F)(F)F)cc2Cl)ccc1Cl` [F164, 3′,5-Dichloro-5′-(trifluoromethyl)-[2,2′-bipyridine]-6-carboxylic acid] here?
**A.** 60 to 74%

**Q.** Which pest or weed control at 140 g/ha does the source give for `COC(=O)c1nc(-c2ccc(OC(F)F)cc2Cl)ccc1Cl` [F157, methyl 3-chloro-6-(2-chloro-4-(difluoromethoxy)phenyl)picolinate] here?
**A.** 0 to 29%

Same assay, conditions: post-emergence, 336 h, AMARE: redroot pigweed (Amaranthus retroflexus), 140 g ai/ha, 14 days after application, read-out: Visual Growth Reduction (%) 14 Days After Application, AMARE

**Q.** With `O=C(O)c1nc(-c2ncc(C(F)(F)F)cc2Cl)ccc1Cl` [F164, 3′,5-Dichloro-5′-(trifluoromethyl)-[2,2′-bipyridine]-6-carboxylic acid] as the compound, how does the pest or weed control at 140 g/ha read?
**A.** 95 to 100%

**Q.** `COC(=O)c1nc(-c2ccc(OC(F)F)cc2Cl)ccc1Cl` [F157, methyl 3-chloro-6-(2-chloro-4-(difluoromethoxy)phenyl)picolinate] was tested. Which pest or weed control at 140 g/ha did it give?
**A.** 95 to 100%

Same assay, conditions: post-emergence, 336 h, AVEFA: wild oat (Avena fatua), 140 g ai/ha, 14 days after application, read-out: Visual Growth Reduction (%) 14 Days After Application, AVEFA

**Q.** With `O=C(O)c1nc(-c2ncc(C(F)(F)F)cc2Cl)ccc1Cl` [F164, 3′,5-Dichloro-5′-(trifluoromethyl)-[2,2′-bipyridine]-6-carboxylic acid] as the compound, how does the pest or weed control at 140 g/ha read?
**A.** 60 to 74%

**Q.** `COC(=O)c1nc(-c2ccc(OC(F)F)cc2Cl)ccc1Cl` [F157, methyl 3-chloro-6-(2-chloro-4-(difluoromethoxy)phenyl)picolinate] was tested. Which pest or weed control at 140 g/ha did it give?
**A.** 45 to 59%

Same assay, conditions: post-emergence, 336 h, CHEAL: lambsquarters (Chenopodium album), 140 g ai/ha, 14 days after application, read-out: Visual Growth Reduction (%) 14 Days After Application, CHEAL

**Q.** How did the pest or weed control at 140 g/ha turn out when `O=C(O)c1nc(-c2ncc(C(F)(F)F)cc2Cl)ccc1Cl` [F164, 3′,5-Dichloro-5′-(trifluoromethyl)-[2,2′-bipyridine]-6-carboxylic acid] was run?
**A.** 95 to 100%

**Q.** Which pest or weed control at 140 g/ha does the source give for `COC(=O)c1nc(-c2ccc(OC(F)F)cc2Cl)ccc1Cl` [F157, methyl 3-chloro-6-(2-chloro-4-(difluoromethoxy)phenyl)picolinate] here?
**A.** 85 to 94%

Same assay, conditions: post-emergence, 336 h, CIRAR: canada thistle (Cirsium arvense), 140 g ai/ha, 14 days after application, read-out: Visual Growth Reduction (%) 14 Days After Application, CIRAR

**Q.** `O=C(O)c1nc(-c2ncc(C(F)(F)F)cc2Cl)ccc1Cl` [F164, 3′,5-Dichloro-5′-(trifluoromethyl)-[2,2′-bipyridine]-6-carboxylic acid] was tested. Which pest or weed control at 140 g/ha did it give?
**A.** 85 to 94%

**Q.** With `COC(=O)c1nc(-c2ccc(OC(F)F)cc2Cl)ccc1Cl` [F157, methyl 3-chloro-6-(2-chloro-4-(difluoromethoxy)phenyl)picolinate] as the compound, how does the pest or weed control at 140 g/ha read?
**A.** 85 to 94%

Same assay, conditions: post-emergence, 336 h, CYPES: yellow nutsedge (Cyperus esculentus), 140 g ai/ha, 14 days after application, read-out: Visual Growth Reduction (%) 14 Days After Application, CYPES

**Q.** How did the pest or weed control at 140 g/ha turn out when `O=C(O)c1nc(-c2ncc(C(F)(F)F)cc2Cl)ccc1Cl` [F164, 3′,5-Dichloro-5′-(trifluoromethyl)-[2,2′-bipyridine]-6-carboxylic acid] was run?
**A.** 0 to 29%

**Q.** `COC(=O)c1nc(-c2ccc(OC(F)F)cc2Cl)ccc1Cl` [F157, methyl 3-chloro-6-(2-chloro-4-(difluoromethoxy)phenyl)picolinate] was tested. Which pest or weed control at 140 g/ha did it give?
**A.** 0 to 29%

Same assay, conditions: post-emergence, 336 h, DIGSA: crabgrass (Digitaria sanguinalis), 140 g ai/ha, 14 days after application, read-out: Visual Growth Reduction (%) 14 Days After Application, DIGSA

**Q.** For `O=C(O)c1nc(-c2ncc(C(F)(F)F)cc2Cl)ccc1Cl` [F164, 3′,5-Dichloro-5′-(trifluoromethyl)-[2,2′-bipyridine]-6-carboxylic acid], which pest or weed control at 140 g/ha is on record?
**A.** 95 to 100%

**Q.** For `COC(=O)c1nc(-c2ccc(OC(F)F)cc2Cl)ccc1Cl` [F157, methyl 3-chloro-6-(2-chloro-4-(difluoromethoxy)phenyl)picolinate], which pest or weed control at 140 g/ha is on record?
**A.** 85 to 94%

Same assay, conditions: post-emergence, 336 h, ECHCG: barnyardgrass (Echinochloa crus-galli), 140 g ai/ha, 14 days after application, read-out: Visual Growth Reduction (%) 14 Days After Application, ECHCG

**Q.** `O=C(O)c1nc(-c2ncc(C(F)(F)F)cc2Cl)ccc1Cl` [F164, 3′,5-Dichloro-5′-(trifluoromethyl)-[2,2′-bipyridine]-6-carboxylic acid] was tested. Which pest or weed control at 140 g/ha did it give?
**A.** 85 to 94%

**Q.** How did the pest or weed control at 140 g/ha turn out when `COC(=O)c1nc(-c2ccc(OC(F)F)cc2Cl)ccc1Cl` [F157, methyl 3-chloro-6-(2-chloro-4-(difluoromethoxy)phenyl)picolinate] was run?
**A.** 85 to 94%

Same assay, conditions: post-emergence, 336 h, IPOHE: ivy-leaf morning glory (Ipomoea hederacea), 140 g ai/ha, 14 days after application, read-out: Visual Growth Reduction (%) 14 Days After Application, IPOHE

**Q.** For `O=C(O)c1nc(-c2ncc(C(F)(F)F)cc2Cl)ccc1Cl` [F164, 3′,5-Dichloro-5′-(trifluoromethyl)-[2,2′-bipyridine]-6-carboxylic acid], which pest or weed control at 140 g/ha is on record?
**A.** 95 to 100%

**Q.** For `COC(=O)c1nc(-c2ccc(OC(F)F)cc2Cl)ccc1Cl` [F157, methyl 3-chloro-6-(2-chloro-4-(difluoromethoxy)phenyl)picolinate], which pest or weed control at 140 g/ha is on record?
**A.** 95 to 100%

Same assay, conditions: post-emergence, 336 h, KCHSC: kochia (Bassia scoparia), 140 g ai/ha, 14 days after application, read-out: Visual Growth Reduction (%) 14 Days After Application, KCHSC

**Q.** Which pest or weed control at 140 g/ha does the source give for `O=C(O)c1nc(-c2ncc(C(F)(F)F)cc2Cl)ccc1Cl` [F164, 3′,5-Dichloro-5′-(trifluoromethyl)-[2,2′-bipyridine]-6-carboxylic acid] here?
**A.** 95 to 100%

**Q.** Which pest or weed control at 140 g/ha does the source give for `COC(=O)c1nc(-c2ccc(OC(F)F)cc2Cl)ccc1Cl` [F157, methyl 3-chloro-6-(2-chloro-4-(difluoromethoxy)phenyl)picolinate] here?
**A.** 85 to 94%

Same assay, conditions: post-emergence, 336 h, ORYSA: rice (Oryza sativa), 140 g ai/ha, 14 days after application, read-out: Visual Growth Reduction (%) 14 Days After Application, ORYSA

**Q.** `O=C(O)c1nc(-c2ncc(C(F)(F)F)cc2Cl)ccc1Cl` [F164, 3′,5-Dichloro-5′-(trifluoromethyl)-[2,2′-bipyridine]-6-carboxylic acid] was tested. Which pest or weed control at 140 g/ha did it give?
**A.** 60 to 74%

**Q.** With `COC(=O)c1nc(-c2ccc(OC(F)F)cc2Cl)ccc1Cl` [F157, methyl 3-chloro-6-(2-chloro-4-(difluoromethoxy)phenyl)picolinate] as the compound, how does the pest or weed control at 140 g/ha read?
**A.** 0 to 29%

Same assay, conditions: post-emergence, 336 h, SETFA: giant foxtail (Setaria faberi), 140 g ai/ha, 14 days after application, read-out: Visual Growth Reduction (%) 14 Days After Application, SETFA

**Q.** For `O=C(O)c1nc(-c2ncc(C(F)(F)F)cc2Cl)ccc1Cl` [F164, 3′,5-Dichloro-5′-(trifluoromethyl)-[2,2′-bipyridine]-6-carboxylic acid], which pest or weed control at 140 g/ha is on record?
**A.** 95 to 100%

**Q.** Which pest or weed control at 140 g/ha does the source give for `COC(=O)c1nc(-c2ccc(OC(F)F)cc2Cl)ccc1Cl` [F157, methyl 3-chloro-6-(2-chloro-4-(difluoromethoxy)phenyl)picolinate] here?
**A.** 85 to 94%

Same assay, conditions: post-emergence, 336 h, SORVU: grain sorghum (Sorghum vulgare), 140 g ai/ha, 14 days after application, read-out: Visual Growth Reduction (%) 14 Days After Application, SORVU

**Q.** `O=C(O)c1nc(-c2ncc(C(F)(F)F)cc2Cl)ccc1Cl` [F164, 3′,5-Dichloro-5′-(trifluoromethyl)-[2,2′-bipyridine]-6-carboxylic acid] was tested. Which pest or weed control at 140 g/ha did it give?
**A.** 85 to 94%

**Q.** Which pest or weed control at 140 g/ha does the source give for `COC(=O)c1nc(-c2ccc(OC(F)F)cc2Cl)ccc1Cl` [F157, methyl 3-chloro-6-(2-chloro-4-(difluoromethoxy)phenyl)picolinate] here?
**A.** 95 to 100%

Same assay, conditions: post-emergence, 336 h, STEME: common chickweed (Stellaria media), 140 g ai/ha, 14 days after application, read-out: Visual Growth Reduction (%) 14 Days After Application, STEME

**Q.** For `O=C(O)c1nc(-c2ncc(C(F)(F)F)cc2Cl)ccc1Cl` [F164, 3′,5-Dichloro-5′-(trifluoromethyl)-[2,2′-bipyridine]-6-carboxylic acid], which pest or weed control at 140 g/ha is on record?
**A.** 30 to 44%

**Q.** With `COC(=O)c1nc(-c2ccc(OC(F)F)cc2Cl)ccc1Cl` [F157, methyl 3-chloro-6-(2-chloro-4-(difluoromethoxy)phenyl)picolinate] as the compound, how does the pest or weed control at 140 g/ha read?
**A.** 0 to 29%

Same assay, conditions: post-emergence, 336 h, TRZAS: wheat, spring (Triticum aestivum), 140 g ai/ha, 14 days after application, read-out: Visual Growth Reduction (%) 14 Days After Application, TRZAS

**Q.** How did the pest or weed control at 140 g/ha turn out when `O=C(O)c1nc(-c2ncc(C(F)(F)F)cc2Cl)ccc1Cl` [F164, 3′,5-Dichloro-5′-(trifluoromethyl)-[2,2′-bipyridine]-6-carboxylic acid] was run?
**A.** 85 to 94%

**Q.** For `COC(=O)c1nc(-c2ccc(OC(F)F)cc2Cl)ccc1Cl` [F157, methyl 3-chloro-6-(2-chloro-4-(difluoromethoxy)phenyl)picolinate], which pest or weed control at 140 g/ha is on record?
**A.** 60 to 74%
